The record followed here is patent US6525001B1, “Substituted pyrimidine and pyridine herbicides” (Mid-American Commercialization Corporation, priority 1997, dated 2003).

What is called melting point is the temperature of the solid-liquid transition. For the compound `Cc1cnc(-c2ccc(C(F)(F)F)cc2)nc1C(=O)c1cccc(C(F)(F)F)c1` [Example 5, [5-methyl-2-[4-(trifluoromethyl)phenyl]-4-pyrimidinyl][3-(trifluoromethyl)phenyl]methanone], the melting point was 98 to 100 °C.
Compound `Cc1cnc(-n2ccc(C(F)(F)F)n2)nc1C(=O)c1cccc(C(F)(F)F)c1` [Example 4, [5-methyl-2-[3-(trifluoromethyl)-1H-pyrazol-1-yl]-4-pyrimidinyl][3-(trifluoromethyl)phenyl]methanone] registered a melting point of 82 to 91 °C.
